The NIST ThermoML archive (doi:10.1021/acs.jced.5b01075)

Assay: wn = mass fraction of the nth substance listed
Conditions: 100 kPa, Liquid; for speed of sound: Frequency=3 MHz, Sing-around technique in a fixed-path interferometer; for mass density: Vibrating tube method

C1CC[C@H]2CCCC[C@@H]2C1 [trans-decahydronaphthalene] + c1ccc2c(c1)CCCC2
Conditions	mass density [kg/m3]	speed of sound [m/s]
293.15 K, w2 = 0.1003	878.7	1405
293.15 K, w2 = 0.2002	887.89	1412.5
293.15 K, w2 = 0.3	897.28	1420.5
293.15 K, w2 = 0.4002	906.9	1428.8
293.15 K, w2 = 0.5	916.67	1437.7
293.15 K, w2 = 0.6	926.69	1446.9
293.15 K, w2 = 0.7	936.89	1456.8
293.15 K, w2 = 0.8	947.32	1467
293.15 K, w2 = 0.8999	957.95	1477.9
303.15 K, w2 = 0.1003	871.18	1364.8
303.15 K, w2 = 0.2002	880.33	1372.4
303.15 K, w2 = 0.3	889.67	1380.5
303.15 K, w2 = 0.4002	899.23	1388.9
303.15 K, w2 = 0.5	908.96	1397.9
303.15 K, w2 = 0.6	918.92	1407.2
303.15 K, w2 = 0.7	929.09	1417.2
303.15 K, w2 = 0.8	939.47	1427.6
303.15 K, w2 = 0.8999	950.07	1438.6
313.15 K, w2 = 0.1003	863.68	1325.3
313.15 K, w2 = 0.2002	872.76	1333.1
313.15 K, w2 = 0.3	882.05	1341.3
313.15 K, w2 = 0.4002	891.55	1349.9
313.15 K, w2 = 0.5	901.24	1358.9
313.15 K, w2 = 0.6	911.15	1368.4
313.15 K, w2 = 0.7	921.27	1378.4
313.15 K, w2 = 0.8	931.61	1388.9
313.15 K, w2 = 0.8999	942.17	1400
323.15 K, w2 = 0.1003	856.15	1286.7
323.15 K, w2 = 0.2002	865.18	1294.5
323.15 K, w2 = 0.3	874.42	1302.8
323.15 K, w2 = 0.4002	883.87	1311.5
323.15 K, w2 = 0.5	893.51	1320.7
323.15 K, w2 = 0.6	903.37	1330.2
323.15 K, w2 = 0.7	913.45	1340.4
323.15 K, w2 = 0.8	923.75	1350.9
323.15 K, w2 = 0.8999	934.26	1362
333.15 K, w2 = 0.1003	848.6	1248.7
333.15 K, w2 = 0.2002	857.58	1256.7
333.15 K, w2 = 0.3	866.77	1265.1
333.15 K, w2 = 0.4002	876.17	1273.9
333.15 K, w2 = 0.5	885.76	1283.1
333.15 K, w2 = 0.6	895.58	1292.7
333.15 K, w2 = 0.7	905.62	1303
333.15 K, w2 = 0.8	915.87	1313.5
333.15 K, w2 = 0.8999	926.34	1324.8
343.15 K, w2 = 0.1003	841	–
343.15 K, w2 = 0.2002	850	–
343.15 K, w2 = 0.3	859.1	–
343.15 K, w2 = 0.4002	868.3	–
343.15 K, w2 = 0.5	878	–
343.15 K, w2 = 0.6	887.9	–
343.15 K, w2 = 0.7	897.7	–
343.15 K, w2 = 0.8	907.9	–
343.15 K, w2 = 0.8999	918.5	–
353.1 K, w2 = 0.1003	833.2	–
353.1 K, w2 = 0.2002	842.3	–
353.1 K, w2 = 0.3	851.4	–
353.1 K, w2 = 0.4002	860.6	–
353.1 K, w2 = 0.5	870.2	–
353.1 K, w2 = 0.6	880	–
353.1 K, w2 = 0.7	889.8	–
353.1 K, w2 = 0.8	900	–
353.1 K, w2 = 0.8999	910.5	–
363.1 K, w2 = 0.1003	825.5	–
363.1 K, w2 = 0.2002	834.6	–
363.1 K, w2 = 0.3	843.5	–
363.1 K, w2 = 0.4002	852.8	–
363.1 K, w2 = 0.5	862.3	–
363.1 K, w2 = 0.6	872.1	–
363.1 K, w2 = 0.7	881.8	–
363.1 K, w2 = 0.8	892	–
363.1 K, w2 = 0.8999	902.4	–
373.1 K, w2 = 0.1003	817.9	–
373.1 K, w2 = 0.2002	826.9	–
373.1 K, w2 = 0.3	835.8	–
373.1 K, w2 = 0.4002	844.9	–
373.1 K, w2 = 0.5	854.5	–
373.1 K, w2 = 0.6	864.2	–
373.1 K, w2 = 0.7	874	–
373.1 K, w2 = 0.8	883.9	–
373.1 K, w2 = 0.8999	894.4	–
